In brackets after ≈: the same amount, converted by molar mass. Where two headings read alike, the source gives them in different places. A value given as a limit tells only on which side of the number the result lay.

Consider seven compounds from patent US20240018146A1, “COMPOSITIONS AND METHODS OF USING THE SAME FOR TREATMENT OF NEURODEGENERATIVE AND MITOCHONDRIAL DISEASE” (MITOKININ, INC., priority 2020, published 2024).

Series [1] deals with HeLa MKYP cells. In words: Human mitophagy assay (HeLa mKeima assay, FACS). The note with it: for EC50: Homo sapiens, HeLa. It counts as cell-based. The gist of the method: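 HeLa cells carrying the pH-sensitive mtKeima tag incubated 16 h with compound at several concentrations, then 1 uM FCCP/oligomycin for 6 h. FACS detects mitochondria in lysosomes through the Keima emission shift, quantified as percentage of cells in mitophagy.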

In series [2] the test system is HeLa MKYP cells. Description: Cell death measured by DAPI staining, with 1 μM FCCP/oligomycin or no toxin (no FO). Format: cell-based. The gist of the method: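 HeLa MKYP cells were treated with compounds alongside 1 μM FCCP/oligomycin or no toxin for 6 or 6.5 h. Cell death was scored by DAPI staining, with H2O2 treatment as the death control.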
Series [3] can be described thus: Mitotoxicity / Mitotox safety margin (therapeutic window). It counts as cell-based. The note with it: for mitotoxicity: FIG. 5-7.
The next series in a line: Kinetic solubility. It counts as physicochemical.
Where [4] appears, read: HeLa mKeima assay, read-out: Mitophagy EC50 (HeLa mKeima assay).
Setting [5] is: mitophagy, 1 μM FCCP/oligomycin, read-out: E100 EC50.
The mark [6] stands for this setting: read-out: Mitophagy induction EC50.
Where [7] appears, read: mitophagy, 1 μM FCCP/oligomycin.

By EC50 is commonly meant the concentration that produces a half-maximal response. By kinetic solubility is commonly meant the concentration staying in solution when a stock, usually in DMSO, is diluted into the medium. Turning to `Fc1ccc2c(c1)CC[C@@H](N1CCOCC1)[C@@H]2Nc1ncnc2[nH]c(C(F)(F)F)cc12` (single isomer, unassigned) [EP-0038504], in the series with HeLa MKYP cells [1] (1 μM FCCP/oligomycin), the “E102 max mitophagy, fold over DMSO” value is 4.67 fold over DMSO. In addition, the EC50 in the series with HeLa MKYP cells [1] (setting [4]) was 14.2 µM. Besides, the EC50 in the series with HeLa MKYP cells [1] (setting [5]) is 14.2 µM. Besides, in the series on HeLa MKYP cells [1] (setting [6]), the EC50 is 14.2 µM. Also, in the series with HeLa MKYP cells [1] (setting [7]), the “E101 lowest effective dose” value was found to be 8.33 µM. Besides, in the series on HeLa MKYP cells [2] (8.3 μM compound, no FO), the “E105 death at 8.3 μM (no FO)” value was 2.93. Besides, the “Max cell death at 25 μM compound, 1 uM FO (%)” value (from here on “Max cell death … (%)”) with HeLa MKYP cells [2] (25 μM compound) came to 4.59%. In addition, in the series with HeLa MKYP cells [2] (25 μM compound, no FO), the “Cell death at 25 μM (no FO) (%)” value stood at 3.1% and the “E104 death at 25 μM (no FO)” value is 3.10. Moreover, in the series with HeLa MKYP cells [2] (no FO), the “Highest safe dose (cytotoxicity; no FO; safe means DAPI+ <20%)” value stood at 25.0 µM. Moreover, in the series on HeLa MKYP cells [2], the “E103 max death with 1 μM FO” value came out at 4.59 and the “Max % death with 1 μM FO” value stood at 4.6%. For the same compound, in series [3], the “Mitotox safety margin (Therapeutic window)” value is listed as “+ (+ = <10)”, the mitotoxicity result is on record as “low mitotoxicity”, the “Mito-Safety Index (highest safe dose/EC50)” value turned out to be 1.76 and the “Highest safe dose (μM) (mitotox or cytotox)” value is 25.0 µM. Also, the solubility (kinetic) in “Kinetic solubility” is 1.56 µM (≈ 0.679 µg/mL).
Turning to `Fc1ccc2c(c1)CC[C@H](N1CCOCC1)[C@H]2Nc1ncnc2[nH]c(C3CC3)cc12` (single isomer, unassigned) [EP-0038521], the “E102 max mitophagy, fold over DMSO” value in the series with HeLa MKYP cells [1] (1 μM FCCP/oligomycin) came to 5.24 fold over DMSO. Besides, in the series on HeLa MKYP cells [1] (setting [4]), the EC50 was 0.37 µM. For the same compound, in the series on HeLa MKYP cells [1] (average ± spread, read-out: E100 EC50 (μM) (average)), the EC50 came to 0.3 ± 0.07 µM. Moreover, the EC50 in the series on HeLa MKYP cells [1] (setting [5]) worked out at 0.37 µM. Further, the EC50 in the series with HeLa MKYP cells [1] (setting [6]) is 0.34 µM. In the series with HeLa MKYP cells [1] (setting [7]), the “E101 lowest effective dose” value is 2.78 µM. Besides, the “Max cell death … (%)” value with HeLa MKYP cells [2] (25 μM compound) came to 6.77%. For the same compound, the “Cell death at 25 μM (no FO) (%)” value with HeLa MKYP cells [2] (25 μM compound, no FO) is reported as 3.42%. In addition, in the series on HeLa MKYP cells [2] (no FO), the “Highest safe dose (cytotoxicity; no FO; safe means DAPI+ <20%)” value is 25.0 µM. Moreover, in the series with HeLa MKYP cells [2], the “E103 max death with 1 μM FO” value is listed as 6.77 and the “Max % death with 1 μM FO” value was found to be 7.6%. Besides, in series [3], the “Mitotox safety margin (Therapeutic window)” value is given as “+++ (+++ = 20 < x < 30)”, the mitotoxicity result is reported as “low mitotoxicity”, the “Mito-Safety Index (highest safe dose/EC50)” value was 24.49 and the “Highest safe dose (μM) (mitotox or cytotox)” value is 8.3 µM. In “Kinetic solubility”, the solubility (kinetic) stood at 1.56 µM (≈ 0.636 µg/mL).
As for `FC(F)(F)c1cc2c(N[C@H]3c4ccccc4CC[C@@H]3N3CC4(COC4)C3)ncnc2[nH]1` [EP-0038249], the EC50 in the series with HeLa MKYP cells [1] (setting [4]) was 2.73 µM; with HeLa MKYP cells [1] (setting [6]), more than 25 µM. Also, the “Max cell death … (%)” value in the series on HeLa MKYP cells [2] (25 μM compound) is 37.3%. Also, in the series on HeLa MKYP cells [2] (25 μM compound, no FO), the “Cell death at 25 μM (no FO) (%)” value was found to be 3.69%. For the same compound, the “Highest safe dose (cytotoxicity; no FO; safe means DAPI+ <20%)” value in the series on HeLa MKYP cells [2] (no FO) is 25.0 µM. In addition, the “Max % death with 1 μM FO” value with HeLa MKYP cells [2] stood at 37.3%. Moreover, the solubility (kinetic) in “Kinetic solubility” is 157 µM (≈ 67.4 µg/mL).
`COC1CCN([C@H]2CCc3ccccc3[C@@H]2Nc2ncnc3[nH]c(C(F)(F)F)cc23)CC1` [EP-0038282]: the “Mitophagy EC50 (HeLa mKeima assay) (μM)” value in the series with HeLa MKYP cells [1] (HeLa mKeima assay) is “Minimal”. For the same compound, the EC50 in the series with HeLa MKYP cells [1] (setting [6]) was more than 25 µM. Besides, the “Max cell death … (%)” value in the series on HeLa MKYP cells [2] (25 μM compound) is 97.5%. Moreover, the “Cell death at 25 μM (no FO) (%)” value in the series with HeLa MKYP cells [2] (25 μM compound, no FO) is 66.6%. In the series on HeLa MKYP cells [2] (no FO), the “Highest safe dose (cytotoxicity; no FO; safe means DAPI+ <20%)” value was 2.8 µM. In the series on HeLa MKYP cells [2], the “Max % death with 1 μM FO” value worked out at 97.5%. The compound further displayed a kinetic solubility in the series “Kinetic solubility” of 134 µM (≈ 59.7 µg/mL).
`FC(F)(F)c1cc2c(N[C@H]3c4ccccc4CC[C@@H]3N3C4CCC3COC4)ncnc2[nH]1` [EP-0038283]: the “Mitophagy EC50 (HeLa mKeima assay) (μM)” value with HeLa MKYP cells [1] (HeLa mKeima assay) is on record as “Minimal”. Besides, the 50% effective concentration (EC50) in the series on HeLa MKYP cells [1] (setting [6]) was more than 25 µM. For the same compound, the “Max cell death … (%)” value in the series with HeLa MKYP cells [2] (25 μM compound) amounted to 98%. Moreover, the “Cell death at 25 μM (no FO) (%)” value in the series with HeLa MKYP cells [2] (25 μM compound, no FO) is on record as 9.6%. In addition, the “Highest safe dose (cytotoxicity; no FO; safe means DAPI+ <20%)” value with HeLa MKYP cells [2] (no FO) is 8.3 µM. Besides, the “Max % death with 1 μM FO” value in the series with HeLa MKYP cells [2] is given as 98.0%. The kinetic solubility in “Kinetic solubility” is 1 µM (≈ 0.443 µg/mL).
For `CN(CC1CCOCC1)[C@H]1CCc2ccccc2[C@@H]1Nc1ncnc2[nH]c(C(F)(F)F)cc12` [EP-0038394], the EC50 with HeLa MKYP cells [1] (setting [4]) is 8.26 µM; in the series on HeLa MKYP cells [1] (setting [6]) it was more than 25 µM. Besides, the “Max cell death … (%)” value in the series on HeLa MKYP cells [2] (25 μM compound) turned out to be 61%. In addition, the “Cell death at 25 μM (no FO) (%)” value in the series on HeLa MKYP cells [2] (25 μM compound, no FO) is listed as 11.4%. The “Highest safe dose (cytotoxicity; no FO; safe means DAPI+ <20%)” value in the series on HeLa MKYP cells [2] (no FO) was 8.3 µM. For the same compound, in the series on HeLa MKYP cells [2], the “Max % death with 1 μM FO” value amounted to 61.0%. In “Kinetic solubility”, this compound displayed a solubility (kinetic) of 7.05 µM (≈ 3.24 µg/mL).
In the case of `c1ccc2c(c1)CC[C@H](N1CCOCC1)[C@H]2Nc1ncnc2[nH]cnc12` [EP-0039678], in the series with HeLa MKYP cells [1] (HeLa mKeima assay), the “Mitophagy EC50 (HeLa mKeima assay) (μM)” value is listed as “Minimal”. Moreover, the “Max cell death … (%)” value in the series on HeLa MKYP cells [2] (25 μM compound) was determined as 2.27%. In the series with HeLa MKYP cells [2] (25 μM compound, no FO), the “Cell death at 25 μM (no FO) (%)” value is 1.77%. The compound also showed a kinetic solubility in the series “Kinetic solubility” of 164 µM (≈ 57.5 µg/mL).
